In patent US6914045B2, “Glycopeptide antibiotics” (Wyeth Holdings Corporation, priority 2001, dated 2005):
Converted amounts (≈) assume the structure as drawn. Like-named read-outs stand apart in the source and are kept apart here.

Key:
Assay in all cases: in vitro antibacterial evaluation, MIC by broth dilution
Assay type in all cases: cell-based
Escherichia coli = tested on: Escherichia coli
Method in brief: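 Broth dilution MIC per NCCLS M7-A2 in Mueller-Hinton II medium, inoculum 5×10^5 CFU/mL, antibiotic range 64-0.06 μg/mL. MIC taken as lowest concentration inhibiting growth.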

Staphylococcus sp. = tested on: Staphylococcus sp.
Procedure: (§1) Methods for in vitro Antibacterial Evaluation (Table 1)
(§2) The minimum inhibitory concentration (MIC), the lowest concentration of the antibiotic which inhibits growth of the test organism, is determined by the broth dilution method using Muller-Hinton II […] (Baltimore Biological Laboratories) following the recommendations of the National Committee for Clinical Laboratory Standards [Methods for dilution antimicrobial susceptibility tests for bacteria that grow aerobically, approved standard M7-A2, National Committee for Clinical Laboratory Standards, Villanova, Pa.].
(§3) An inoculum level of 5×10^5 CFU/mL, and a range of antibiotic concentrations (64-0.06 μg/mL) is used. […] The test organisms include a spectrum of Gram-positive bacteria comprised of Staphylococcus sp., Streptococcus sp. and Enterococcus sp. These organisms include recent clinical isolates that are resistant to methicillin, penicillin and/or vancomycin.

Streptococcus sp. = tested on: Streptococcus sp.
Procedure: as §1, §2, §3

Enterococcus sp. = tested on: Enterococcus sp.
Procedure: as §1, §2, §3

[1] = broth dilution, 18 hours at 35° C.

CC(C)=Cc1nc2cc(CC3NC(=O)C(C(C)c4ccccc4)NC(=O)CNC(=O)C(CO)NC(=O)C(C(O)C4CNC(=N)N4C4OC(CO)C(O)C(O)C4O)NC(=O)C(C(O)C4CNC(=N)N4)NC3=O)ccc2o1 (stereo not drawn) [Example 40, Cyclo[3-[2-(2-methylprop-1-en-1-yl)-1,3-benzoxazol-5-yl]alanyl-3-(2-iminoimidazolidin-4-yl)seryl-3-(3-hexopyranosyl-2-iminoimidazolidin-4-yl)serylserylglycyl-β-methylphenyl-alanyl]]
MIC Escherichia coli (ATCC 25922) (Escherichia coli): 32 µg/mL (≈ 30.5 µM)
MIC Escherichia coli (GC 4559) (Escherichia coli): 32 µg/mL (≈ 30.5 µM)
MIC Escherichia coli (GC 4560) (Escherichia coli): 16 µg/mL (≈ 15.2 µM)
MIC Coagulase Negative Staphylococcus (GC 4547) (Staphylococcus sp.): 16 µg/mL (≈ 15.2 µM)
MIC Coagulase Negative Staphylococcus (GC 4548) (Staphylococcus sp.): 32 µg/mL (≈ 30.5 µM)
MIC Coagulase Negative Staphylococcus (GC 4549) (Staphylococcus sp.): 16 µg/mL (≈ 15.2 µM)
MIC Coagulase Negative Staphylococcus (GC 4551) (Staphylococcus sp.): 32 µg/mL (≈ 30.5 µM)
MIC Coagulase Negative Staphylococcus (GC 6257) (Staphylococcus sp.): 16 µg/mL (≈ 15.2 µM)
MIC Staphylococcus aureus (ATCC 29213) (Staphylococcus sp.): 64 µg/mL (≈ 60.9 µM)
MIC Staphylococcus aureus (GC 1131) (Staphylococcus sp.): 64 µg/mL (≈ 60.9 µM)
MIC Staphylococcus aureus (GC 3051) (Staphylococcus sp.): 64 µg/mL (≈ 60.9 µM)
MIC Staphylococcus aureus (GC 3053) (Staphylococcus sp.): 64 µg/mL (≈ 60.9 µM)
MIC Staphylococcus aureus (GC 4541) (Staphylococcus sp.): 64 µg/mL (≈ 60.9 µM)
MIC Staphylococcus aureus (GC 4542) (Staphylococcus sp.): 64 µg/mL (≈ 60.9 µM)
MIC Staphylococcus aureus (GC 4544) (Staphylococcus sp.): 32 µg/mL (≈ 30.5 µM)
MIC Staphylococcus aureus (GC 4545) (Staphylococcus sp.): 32 µg/mL (≈ 30.5 µM)
MIC Staphylococcus aureus-SMITH (GC 4543) (Staphylococcus sp.): 64 µg/mL (≈ 60.9 µM)
MIC Staphylococcus haemolyticus (GC 4546) (Staphylococcus sp.): 16 µg/mL (≈ 15.2 µM)
MIC Streptococcus agalactiae (GC 4564) (Streptococcus sp.): 64 µg/mL (≈ 60.9 µM)
MIC Streptococcus pneumoniae (ATCC 6301) (Streptococcus sp.): 64 µg/mL (≈ 60.9 µM)
MIC Streptococcus pneumoniae (GC 1894) (Streptococcus sp.): 32 µg/mL (≈ 30.5 µM)
MIC Streptococcus pneumoniae (GC 4565) (Streptococcus sp.): 128 µg/mL (≈ 122 µM)
MIC Streptococcus pyogenes (GC 4563) (Streptococcus sp.): 32 µg/mL (≈ 30.5 µM)
MIC Enterococcus avium (GC 4558) (Enterococcus sp.): 64 µg/mL (≈ 60.9 µM)
MIC Enterococcus faecalis (ATCC 29212) (Enterococcus sp.): 128 µg/mL (≈ 122 µM)
MIC Enterococcus faecalis (GC 2242) (Enterococcus sp.): 128 µg/mL (≈ 122 µM)
MIC Enterococcus faecalis (GC 2691) (Enterococcus sp.): 128 µg/mL (≈ 122 µM)
MIC Enterococcus faecalis (GC 3059) (Enterococcus sp.): >128 µg/mL
MIC Enterococcus faecalis (GC 4552) (Enterococcus sp.): >128 µg/mL
MIC Enterococcus faecalis (GC 4553) (Enterococcus sp.): 64 µg/mL (≈ 60.9 µM)
MIC Enterococcus faecalis (GC 4554) (Enterococcus sp.): >128 µg/mL
MIC Enterococcus faecalis (GC 6189) (Enterococcus sp.): 128 µg/mL (≈ 122 µM)
MIC Enterococcus faecium (GC 2243) (Enterococcus sp.): 64 µg/mL (≈ 60.9 µM)
MIC Enterococcus faecium (GC 4556) (Enterococcus sp.): 128 µg/mL (≈ 122 µM)
MIC Enterococcus faecium (GC 4557) (Enterococcus sp.): 16 µg/mL (≈ 15.2 µM)

CC(c1ccc(Cl)cc1)C1NC(=O)CNC(=O)C(CO)NC(=O)C(C(O)C2CNC(=N)N2C2OC(CO)C(O)C(O)C2O)NC(=O)C(C(O)C2CNC(=N)N2)NC(=O)C(Cc2ccc(OC3OC(CO)C(OC4OC5COC(C6CCCCC6)OC5C(O)C4O)C(O)C3O)cc2)NC1=O (stereo not drawn) [Example 193]
MIC Escherichia coli (GC 4559) (Escherichia coli; 18 hours at 35° C.): 32 µg/mL (≈ 22.5 µM)
MIC Escherichia coli (GC 4560) (Escherichia coli; 18 hours at 35° C.): 2 µg/mL (≈ 1.4 µM)
MIC Staphylococcus aureus (GC 1131) (Staphylococcus sp.; broth dilution, 18 hours at 35° C., inoculum 5×10^5 CFU/mL, strain GC 1131): 1 µg/mL (≈ 0.702 µM)
MIC Staphylococcus aureus (ATCC 29213) (Staphylococcus sp.; strain ATCC 29213, broth dilution, 18 hours at 35° C.): 0.5 µg/mL (≈ 0.351 µM)
MIC Staphylococcus aureus (GC 1131) (Staphylococcus sp.; strain GC 1131, broth dilution, 18 hours at 35° C.): 1 µg/mL (≈ 0.702 µM)
MIC Staphylococcus aureus (GC 3051) (Staphylococcus sp.; strain GC 3051, broth dilution, 18 hours at 35° C.): 1 µg/mL (≈ 0.702 µM)
MIC Staphylococcus aureus (GC 3053) (Staphylococcus sp.; strain GC 3053, broth dilution, 18 hours at 35° C.): 0.5 µg/mL (≈ 0.351 µM)
MIC Staphylococcus aureus (GC 4541) (Staphylococcus sp.; strain GC 4541, broth dilution, 18 hours at 35° C.): 0.5 µg/mL (≈ 0.351 µM)
MIC Staphylococcus aureus (GC 4542) (Staphylococcus sp.; strain GC 4542, broth dilution, 18 hours at 35° C.): 0.25 µg/mL (≈ 0.176 µM)
MIC Staphylococcus aureus-SMITH (GC 4543) (Staphylococcus sp.; strain GC 4543, broth dilution, 18 hours at 35° C.): 0.5 µg/mL (≈ 0.351 µM)
MIC Staphylococcus aureus (GC 4544) (Staphylococcus sp.; strain GC 4544, broth dilution, 18 hours at 35° C.): 1 µg/mL (≈ 0.702 µM)
MIC Staphylococcus aureus (GC 4545) (Staphylococcus sp.; strain GC 4545, broth dilution, 18 hours at 35° C.): 0.5 µg/mL (≈ 0.351 µM)
MIC Staphylococcus haemolyticus (GC 4546) (Staphylococcus sp.; strain GC 4546, broth dilution, 18 hours at 35° C.): 0.5 µg/mL (≈ 0.351 µM)
MIC Coagulase Negative Staphylococcus (GC 4547) (Staphylococcus sp.; strain GC 4547, broth dilution, 18 hours at 35° C.): 1 µg/mL (≈ 0.702 µM)
MIC Coagulase Negative Staphylococcus (GC 4548) (Staphylococcus sp.; strain GC 4548, broth dilution, 18 hours at 35° C.): 0.25 µg/mL (≈ 0.176 µM)
MIC Coagulase Negative Staphylococcus (GC 4549) (Staphylococcus sp.; strain GC 4549, broth dilution, 18 hours at 35° C.): 0.25 µg/mL (≈ 0.176 µM)
MIC Coagulase Negative Staphylococcus (GC 4551) (Staphylococcus sp.; strain GC 4551, broth dilution, 18 hours at 35° C.): 0.5 µg/mL (≈ 0.351 µM)
MIC Coagulase Negative Staphylococcus (GC 6257) (Staphylococcus sp.; strain GC 6257, broth dilution, 18 hours at 35° C.): 0.25 µg/mL (≈ 0.176 µM)
MIC Streptococcus agalactiae (GC 4564) (Streptococcus sp.; [1]): <0.06 µg/mL
MIC Streptococcus pneumoniae (ATCC 6301) (Streptococcus sp.; [1]): 0.12 µg/mL (≈ 0.0843 µM)
MIC Streptococcus pneumoniae (GC 1894) (Streptococcus sp.; [1]): <0.06 µg/mL
MIC Streptococcus pneumoniae (GC 4565) (Streptococcus sp.; [1]): <0.06 µg/mL
MIC Streptococcus pyogenes (GC 4563) (Streptococcus sp.; [1]): <0.06 µg/mL
MIC Streptococcus pneumoniae (ATCC 6301) (Streptococcus sp.; broth dilution, inoculum 5×10^5 CFU/mL, 18 hours at 35° C., strain ATCC 6301): 0.12 µg/mL (≈ 0.0843 µM)
MIC Streptococcus pneumoniae (GC 1894) (Streptococcus sp.; broth dilution, inoculum 5×10^5 CFU/mL, 18 hours at 35° C., strain GC 1894): <0.06 µg/mL
MIC Streptococcus pyogenes (GC 4563) (Streptococcus sp.; broth dilution, inoculum 5×10^5 CFU/mL, 18 hours at 35° C., strain GC 4563): <0.06 µg/mL
MIC Streptococcus agalactiae (GC 4564) (Streptococcus sp.; broth dilution, inoculum 5×10^5 CFU/mL, 18 hours at 35° C., strain GC 4564): <0.06 µg/mL
MIC Streptococcus pneumoniae (GC 4565) (Streptococcus sp.; broth dilution, inoculum 5×10^5 CFU/mL, 18 hours at 35° C., strain GC 4565): <0.06 µg/mL
MIC Enterococcus avium (GC 4558) (Enterococcus sp.; [1]): 2 µg/mL (≈ 1.4 µM)
MIC Enterococcus faecalis (ATCC 29212) (Enterococcus sp.; [1]): 1 µg/mL (≈ 0.702 µM)
MIC Enterococcus faecalis (GC 2242) (Enterococcus sp.; [1]): 1 µg/mL (≈ 0.702 µM)
MIC Enterococcus faecalis (GC 2691) (Enterococcus sp.; [1]): 2 µg/mL (≈ 1.4 µM)
MIC Enterococcus faecalis (GC 3059) (Enterococcus sp.; [1]): 1 µg/mL (≈ 0.702 µM)
MIC Enterococcus faecalis (GC 4552) (Enterococcus sp.; [1]): 1 µg/mL (≈ 0.702 µM)
MIC Enterococcus faecalis (GC 4553) (Enterococcus sp.; [1]): 2 µg/mL (≈ 1.4 µM)
MIC Enterococcus faecalis (GC 4554) (Enterococcus sp.; [1]): 2 µg/mL (≈ 1.4 µM)
MIC Enterococcus faecalis (GC 6189) (Enterococcus sp.; [1]): 0.5 µg/mL (≈ 0.351 µM)
MIC Enterococcus faecium (GC 2243) (Enterococcus sp.; [1]): 1 µg/mL (≈ 0.702 µM)
MIC Enterococcus faecium (GC 4556) (Enterococcus sp.; [1]): 1 µg/mL (≈ 0.702 µM)
MIC Enterococcus faecium (GC 4557) (Enterococcus sp.; [1]): 2 µg/mL (≈ 1.4 µM)
MIC Enterococcus faecalis (ATCC 29212) (Enterococcus sp.; broth dilution, inoculum 5×10^5 CFU/mL, 18 hours at 35° C., strain ATCC 29212): 1 µg/mL (≈ 0.702 µM)
MIC Enterococcus faecalis (GC 2242) (Enterococcus sp.; broth dilution, inoculum 5×10^5 CFU/mL, 18 hours at 35° C., strain GC 2242): 1 µg/mL (≈ 0.702 µM)
MIC Enterococcus faecium (GC 2243) (Enterococcus sp.; broth dilution, inoculum 5×10^5 CFU/mL, 18 hours at 35° C., strain GC 2243): 1 µg/mL (≈ 0.702 µM)
MIC Enterococcus faecalis (GC 2691) (Enterococcus sp.; broth dilution, inoculum 5×10^5 CFU/mL, 18 hours at 35° C., strain GC 2691): 2 µg/mL (≈ 1.4 µM)
MIC Enterococcus faecalis (GC 3059) (Enterococcus sp.; broth dilution, inoculum 5×10^5 CFU/mL, 18 hours at 35° C., strain GC 3059): 1 µg/mL (≈ 0.702 µM)
MIC Enterococcus faecalis (GC 4552) (Enterococcus sp.; broth dilution, inoculum 5×10^5 CFU/mL, 18 hours at 35° C., strain GC 4552): 1 µg/mL (≈ 0.702 µM)
MIC Enterococcus faecalis (GC 4553) (Enterococcus sp.; broth dilution, inoculum 5×10^5 CFU/mL, 18 hours at 35° C., strain GC 4553): 2 µg/mL (≈ 1.4 µM)
MIC Enterococcus faecalis (GC 4554) (Enterococcus sp.; broth dilution, inoculum 5×10^5 CFU/mL, 18 hours at 35° C., strain GC 4554): 2 µg/mL (≈ 1.4 µM)
MIC Enterococcus faecium (GC 4556) (Enterococcus sp.; broth dilution, inoculum 5×10^5 CFU/mL, 18 hours at 35° C., strain GC 4556): 1 µg/mL (≈ 0.702 µM)
MIC Enterococcus faecium (GC 4557) (Enterococcus sp.; broth dilution, inoculum 5×10^5 CFU/mL, 18 hours at 35° C., strain GC 4557): 2 µg/mL (≈ 1.4 µM)
MIC Enterococcus avium (GC 4558) (Enterococcus sp.; broth dilution, inoculum 5×10^5 CFU/mL, 18 hours at 35° C., strain GC 4558): 2 µg/mL (≈ 1.4 µM)
MIC Enterococcus faecalis (GC 6189) (Enterococcus sp.; broth dilution, inoculum 5×10^5 CFU/mL, 18 hours at 35° C., strain GC 6189): 0.5 µg/mL (≈ 0.351 µM)
